Results from the NIST ThermoML archive (doi:10.1016/j.fluid.2010.10.028).

Test: xn = mol fraction of the nth substance listed
Conditions: Liquid, Vibrating tube method

CC(C)=O [acetone] + CCCCCCC
Conditions	mass density [kg/m3]
397.28 K, 64890 kPa, x1 = 0.7024	708.2
397.28 K, 69880 kPa, x1 = 0.7024	712.51
397.28 K, 74860 kPa, x1 = 0.7024	716.61
397.28 K, 74910 kPa, x1 = 0.492	698.27
397.28 K, 74910 kPa, x1 = 0.801	727.94
397.28 K, 74920 kPa, x1 = 0.611	707.37
397.28 K, 79830 kPa, x1 = 0.7024	720.53
397.28 K, 79900 kPa, x1 = 0.492	702.07
397.28 K, 84840 kPa, x1 = 0.7024	724.33
397.28 K, 84890 kPa, x1 = 0.492	705.69
397.28 K, 89820 kPa, x1 = 0.7024	727.97
397.28 K, 94800 kPa, x1 = 0.7024	731.49
397.28 K, 94850 kPa, x1 = 0.492	712.56
397.28 K, 99780 kPa, x1 = 0.7024	734.88
397.28 K, 99820 kPa, x1 = 0.801	746.56
397.28 K, 104760 kPa, x1 = 0.7024	738.15
397.28 K, 109780 kPa, x1 = 0.801	753.14
397.28 K, 114820 kPa, x1 = 0.7024	744.47
397.28 K, 114850 kPa, x1 = 0.492	725.01
397.28 K, 114850 kPa, x1 = 0.801	756.36
397.28 K, 114870 kPa, x1 = 0.611	734.74
397.28 K, 119800 kPa, x1 = 0.7024	747.44
397.28 K, 119860 kPa, x1 = 0.611	737.69
397.28 K, 124830 kPa, x1 = 0.7024	750.39
397.28 K, 124840 kPa, x1 = 0.492	730.68
397.28 K, 124840 kPa, x1 = 0.801	762.38
397.28 K, 124860 kPa, x1 = 0.611	740.54
397.28 K, 129790 kPa, x1 = 0.7024	753.19
397.28 K, 129840 kPa, x1 = 0.492	733.39
397.28 K, 129840 kPa, x1 = 0.611	743.3
397.29 K, 19850 kPa, x1 = 0.492	638.92
397.29 K, 24860 kPa, x1 = 0.492	646.54
397.29 K, 39850 kPa, x1 = 0.492	665.68
397.29 K, 49840 kPa, x1 = 0.492	676.28
397.29 K, 69930 kPa, x1 = 0.492	694.29
397.29 K, 89860 kPa, x1 = 0.492	709.18
397.29 K, 99830 kPa, x1 = 0.492	715.82
397.29 K, 104800 kPa, x1 = 0.492	718.94
397.29 K, 109740 kPa, x1 = 0.7024	741.31
397.29 K, 109770 kPa, x1 = 0.492	722
397.29 K, 119840 kPa, x1 = 0.492	727.87
407.2 K, 1850 kPa, x1 = 0.4	626.34
407.2 K, 1850 kPa, x1 = 0.8992	626.34
407.2 K, 5000 kPa, x1 = 0.4	635.78
407.2 K, 5000 kPa, x1 = 0.8992	635.78
407.2 K, 10000 kPa, x1 = 0.4	648.49
407.2 K, 10000 kPa, x1 = 0.8992	648.49
407.2 K, 14980 kPa, x1 = 0.4	659.29
407.2 K, 14980 kPa, x1 = 0.8992	659.29
407.2 K, 49890 kPa, x1 = 0.4	710.54
407.2 K, 49890 kPa, x1 = 0.8992	710.54
407.21 K, 1650 kPa, x1 = 0.611	594.88
407.21 K, 1660 kPa, x1 = 0.801	612.07
407.21 K, 4870 kPa, x1 = 0.611	604.63
407.21 K, 4870 kPa, x1 = 0.801	621.91
407.21 K, 9870 kPa, x1 = 0.611	617.29
407.21 K, 14860 kPa, x1 = 0.801	645.72
407.21 K, 14880 kPa, x1 = 0.611	627.98
407.21 K, 19850 kPa, x1 = 0.801	655.22
407.21 K, 19960 kPa, x1 = 0.4	668.77
407.21 K, 19960 kPa, x1 = 0.8992	668.77
407.21 K, 24940 kPa, x1 = 0.4	677.3
407.21 K, 24940 kPa, x1 = 0.8992	677.3
407.21 K, 29940 kPa, x1 = 0.4	685.05
407.21 K, 29940 kPa, x1 = 0.8992	685.05
407.21 K, 34930 kPa, x1 = 0.4	692.12
407.21 K, 34930 kPa, x1 = 0.8992	692.12
407.21 K, 39920 kPa, x1 = 0.4	698.68
407.21 K, 39920 kPa, x1 = 0.8992	698.68
407.21 K, 44900 kPa, x1 = 0.4	704.79
407.21 K, 44900 kPa, x1 = 0.8992	704.79
407.21 K, 54880 kPa, x1 = 0.4	715.92
407.21 K, 54880 kPa, x1 = 0.8992	715.92
407.21 K, 59880 kPa, x1 = 0.4	721.06
407.21 K, 59880 kPa, x1 = 0.8992	721.06
407.21 K, 64860 kPa, x1 = 0.4	725.91
407.21 K, 64860 kPa, x1 = 0.8992	725.91
407.21 K, 69840 kPa, x1 = 0.4	730.52
407.21 K, 69840 kPa, x1 = 0.8992	730.52
407.21 K, 74830 kPa, x1 = 0.4	734.95
407.21 K, 74830 kPa, x1 = 0.8992	734.95
407.21 K, 79810 kPa, x1 = 0.4	739.19
407.21 K, 79810 kPa, x1 = 0.8992	739.19
407.21 K, 84790 kPa, x1 = 0.4	743.24
407.21 K, 84790 kPa, x1 = 0.8992	743.24
407.21 K, 89780 kPa, x1 = 0.4	747.17
407.21 K, 89780 kPa, x1 = 0.8992	747.17
407.22 K, 1650 kPa, x1 = 0.492	588.49
407.22 K, 4850 kPa, x1 = 0.492	597.92
407.22 K, 9860 kPa, x1 = 0.801	634.81
407.22 K, 19860 kPa, x1 = 0.611	637.25
407.22 K, 24840 kPa, x1 = 0.492	637.87
407.22 K, 24850 kPa, x1 = 0.611	645.53
407.22 K, 24850 kPa, x1 = 0.801	663.77
407.22 K, 29850 kPa, x1 = 0.492	645.2
407.22 K, 29860 kPa, x1 = 0.801	671.47
407.22 K, 29870 kPa, x1 = 0.611	653.05
407.22 K, 34850 kPa, x1 = 0.801	678.52
407.22 K, 34860 kPa, x1 = 0.611	659.9
407.22 K, 39850 kPa, x1 = 0.801	685.05
407.22 K, 39860 kPa, x1 = 0.611	666.23
407.22 K, 44860 kPa, x1 = 0.801	691.11
407.22 K, 44870 kPa, x1 = 0.611	672.1
407.22 K, 49870 kPa, x1 = 0.611	677.58
407.22 K, 54850 kPa, x1 = 0.611	682.71
407.22 K, 59830 kPa, x1 = 0.611	687.58
407.22 K, 59840 kPa, x1 = 0.492	679.01
407.22 K, 59840 kPa, x1 = 0.801	707.14
407.22 K, 64930 kPa, x1 = 0.611	692.3
407.22 K, 69830 kPa, x1 = 0.801	716.45
407.22 K, 69920 kPa, x1 = 0.611	696.69
407.22 K, 74910 kPa, x1 = 0.611	700.88
407.22 K, 74920 kPa, x1 = 0.801	720.89
407.22 K, 79900 kPa, x1 = 0.611	704.88
407.22 K, 79920 kPa, x1 = 0.801	725.05
407.22 K, 84880 kPa, x1 = 0.611	708.71
407.22 K, 84890 kPa, x1 = 0.801	729.04
407.22 K, 89850 kPa, x1 = 0.611	712.41
407.22 K, 89860 kPa, x1 = 0.492	703.26
407.22 K, 89890 kPa, x1 = 0.801	732.88
407.22 K, 94740 kPa, x1 = 0.4	750.92
407.22 K, 94740 kPa, x1 = 0.8992	750.92
407.22 K, 94840 kPa, x1 = 0.611	715.96
407.22 K, 94870 kPa, x1 = 0.801	736.56
407.22 K, 99720 kPa, x1 = 0.4	754.58
407.22 K, 99720 kPa, x1 = 0.8992	754.58
407.22 K, 99820 kPa, x1 = 0.611	719.38
407.22 K, 99840 kPa, x1 = 0.801	740.12
407.22 K, 104690 kPa, x1 = 0.4	758.09
407.22 K, 104690 kPa, x1 = 0.8992	758.09
407.22 K, 104790 kPa, x1 = 0.611	722.68
407.22 K, 104820 kPa, x1 = 0.801	743.55
407.22 K, 109650 kPa, x1 = 0.4	761.5
407.22 K, 109650 kPa, x1 = 0.8992	761.5
407.22 K, 109770 kPa, x1 = 0.492	716.44
407.22 K, 109790 kPa, x1 = 0.801	746.89
407.22 K, 109860 kPa, x1 = 0.611	725.93
407.22 K, 114620 kPa, x1 = 0.4	764.8
407.22 K, 114620 kPa, x1 = 0.8992	764.8
407.22 K, 114770 kPa, x1 = 0.801	750.12
407.22 K, 114860 kPa, x1 = 0.492	719.55
407.22 K, 114870 kPa, x1 = 0.611	729.06
407.22 K, 119590 kPa, x1 = 0.4	768
407.22 K, 119590 kPa, x1 = 0.8992	768
407.22 K, 119840 kPa, x1 = 0.492	722.47
407.22 K, 119840 kPa, x1 = 0.801	753.32
407.22 K, 119850 kPa, x1 = 0.611	732.05
407.22 K, 124560 kPa, x1 = 0.4	771.11
407.22 K, 124560 kPa, x1 = 0.8992	771.11
407.22 K, 124850 kPa, x1 = 0.492	725.34
407.22 K, 124850 kPa, x1 = 0.611	735.01
407.22 K, 124850 kPa, x1 = 0.801	756.37
407.22 K, 129820 kPa, x1 = 0.4	774.33
407.22 K, 129820 kPa, x1 = 0.8992	774.33
407.22 K, 129840 kPa, x1 = 0.611	737.84
407.22 K, 129840 kPa, x1 = 0.801	759.34
407.23 K, 4820 kPa, x1 = 0.7024	611.92
407.23 K, 9850 kPa, x1 = 0.492	610.28
407.23 K, 14860 kPa, x1 = 0.492	620.71
407.23 K, 19860 kPa, x1 = 0.492	629.81
407.23 K, 24820 kPa, x1 = 0.7024	653.51
407.23 K, 29820 kPa, x1 = 0.7024	661.13
407.23 K, 34840 kPa, x1 = 0.492	651.87
407.23 K, 39860 kPa, x1 = 0.492	658.08
407.23 K, 44850 kPa, x1 = 0.492	663.81
407.23 K, 49840 kPa, x1 = 0.801	696.75
407.23 K, 49850 kPa, x1 = 0.492	669.19
407.23 K, 54850 kPa, x1 = 0.801	702.09
407.23 K, 54860 kPa, x1 = 0.492	674.25
407.23 K, 64830 kPa, x1 = 0.492	683.5
407.23 K, 64830 kPa, x1 = 0.801	711.9
407.23 K, 69930 kPa, x1 = 0.492	687.88
407.23 K, 74910 kPa, x1 = 0.492	691.98
407.23 K, 79890 kPa, x1 = 0.492	695.9
407.23 K, 84870 kPa, x1 = 0.492	699.66
407.23 K, 94840 kPa, x1 = 0.492	706.73
407.23 K, 99820 kPa, x1 = 0.492	710.09
407.23 K, 104790 kPa, x1 = 0.492	713.3
407.23 K, 129830 kPa, x1 = 0.492	728.11
407.24 K, 1620 kPa, x1 = 0.7024	602.1
407.24 K, 9830 kPa, x1 = 0.7024	624.8
407.24 K, 14840 kPa, x1 = 0.7024	635.66
